These results are taken from PubChem BioAssay AID504672 (Sanford-Burnham Center for Chemical Genomics, 2011).

What is called IC50 is the concentration that inhibits the measured activity by half.

Active and inactive are the calls of the source. Cut-off read from the data, not from the text of the source: active = IC50 below about 71 µM; inactive = the rest.

The assay deals with S. cerevisiae tim10 strain, luminescence counterscreen. The assay is described as follows: TIM10 strain luminescence inhibitors – S. cerevisiae, uHTS hits, counter-screen for tim23-1 inhibitor project, dose response (AID 504672;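 note: yeast grew roughly 22 hours at 25 °C before the luminescence read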). (The purpose of a counterscreen is to sort out artefacts and off-target activity.)

On to `O=C(Nc1nsc(-c2ccccc2)n1)c1cccs1`, for which the IC50 was 6.65 µM.
The same measure for `O=[N+]([O-])c1cc(O)c2ncccc2c1`: 7.75 µM.
The figure for `Cc1ccc2occ(C(=O)c3ccco3)c(=O)c2c1` is 9.21 µM.
The same measure for `Cc1nc(-c2ccc(NC(=O)c3ccccc3)cc2)cs1`: 8.18 µM.
On to `Cc1ccc2nc(NC(=O)Cn3nc(C)c([N+](=O)[O-])c3C)sc2c1`, for which the IC50 is 18.2 µM.
Take `Cc1nc2ccccc2n1/N=C/c1ccc([N+](=O)[O-])s1`: the half-maximal inhibitory concentration (IC50) was 2.14 µM.
Turning to `Cc1ccc(SCC(=O)OCn2nnc3ccccc3c2=O)cc1C`, the 50% inhibitory concentration (IC50) was 15.6 µM.
On to `CCc1ccc(NC(=O)/C(C#N)=C/c2ccncc2)cc1`, for which the 50% inhibitory concentration (IC50) was 12.6 µM.
The figure for `CCN(CC)S(=O)(=O)c1ccc(C(=O)OCn2nnc3ccccc3c2=O)cc1` is > 100 µM (inactive); for `COc1cc(/C=C/[N+](=O)[O-])ccc1OC(=O)c1cc2ccccc2oc1=O` it is 3.42 µM.
The same measure for `CC1CCc2c(c3ccccc3n2C(=O)CCl)C1` (stereo unspecified): 5.12 µM; for `O=C1NC(=S)SC1=C1CCCCCC1`: 14.1 µM; for `CCOC(=O)c1c(-c2ccccc2)oc2ccc(O)cc12`: 10.2 µM.
The same measure for `CCOC(=O)c1cccnc1SCc1cc(=O)n2ccccc2n1`: > 100 µM (inactive); for `Cc1occc1C(=O)N/N=C/C(Br)=C/c1ccccc1`: 11.5 µM.
`Cc1nc2nc(-c3cccs3)[nH]c2cc1Br`: the IC50 was 14.9 µM.
Turning to `O=c1oc(-c2ccc(Br)o2)nc2ccccc12`, the 50% inhibitory concentration (IC50) is 8.59 µM.
Turning to `Cc1ccc(C(=O)Nc2nc(C(C)(C)C)cs2)s1`, the IC50 was 20.9 µM.
Consider `CCCCc1cc(O)c(CCCC)c(O)c1`, for which the 50% inhibitory concentration (IC50) was 1.21 µM.
The same measure for `COc1ccc2c(c1)sc1nc(-c3ccccc3)cn12`: 20.5 µM.
The same measure for `O=C(NC(=O)c1ccccc1F)OCc1ccc(Cl)cc1Cl`: 15 µM; for `COc1cc(OC)cc(C(=O)Nc2ccc(Nc3ccccc3)cc2)c1`: 27.3 µM; for `Cc1cc2cc(CNC(=O)c3ccc(C)c([N+](=O)[O-])c3)ccc2[nH]1`: 31 µM.
As for `N=c1c2c(-c3ccccc3)c(-c3ccccc3)n(Cc3ccco3)c2ncn1Cc1ccccc1`, the IC50 was 13.6 µM.
The same measure for `COc1ccccc1C(=O)Nc1nnc(-c2ccc3c(c2)CCCC3)o1`: 14.7 µM.
`COc1ccc(C2=NNC(c3cccs3)=Nc3ccc(OC)cc32)cc1`: the half-inhibitory concentration (IC50) was 9.29 µM.
The figure for `O=C(Nc1ccc2c(c1)OCCO2)c1cccc(Cl)c1` is 21.5 µM; for `O=C(Nc1nc2ccccc2s1)C1CCCN1S(=O)(=O)c1ccc(Cl)cc1` (stereo unspecified) it is 49.3 µM.
The same measure for `O=c1c(O)c(-c2ccccc2)oc2cc(O)cc(O)c12`: 35.5 µM; for `COc1ccc(/C=C/C(=O)Nc2ccc3c(c2)CCC3)cc1OC`: 64.1 µM.
Turning to `c1ccc(N=Nc2cn[nH]c2-c2ccco2)cc1`, the half-inhibitory concentration (IC50) was 20.8 µM.
Consider `Cc1ccc2nc(N3C(=O)CNC3=S)sc2c1`, for which the half-inhibitory concentration (IC50) is 21.1 µM.
The same measure for `O=Cc1cnc2ccccc2c1-c1ccccc1`: 9.53 µM; for `CSC1=N/C(=C\c2ccc(C)cc2)C(=O)S1`: 23.8 µM.
`Cc1[nH][nH]c(=O)c1C(c1ccc(-c2ccc(F)cc2)o1)c1c(C)[nH][nH]c1=O`: the IC50 was 16.3 µM.
For the compound `Cc1ccc2occ(/C=N/NC(=O)c3ccccc3Br)c(=O)c2c1`, the half-inhibitory concentration (IC50) is 17.3 µM.
The same measure for `Cc1cc(C(=O)CCl)c(C)n1CCc1ccc(Cl)cc1`: 11 µM.
As for `CN1C(=O)C(=Cc2ccccc2OS(=O)(=O)c2ccccc2)C(=O)N(C)C1=O`, the concentration for half-maximal inhibition (IC50) is 5.92 µM.
As for `COc1ccc(NC(=O)C#Cc2ccccc2)cc1`, the IC50 was 6.8 µM.
In the case of `Cc1cnc(NC(=O)c2sc(Nc3ccccc3)nc2N)o1`, the IC50 was 28 µM.
The same measure for `CCOC(=O)c1c(N)sc(C(=O)Nc2ccccc2)c1C`: 2.25 µM.
Consider `NC(=S)N/N=C/c1coc2ccc(Br)cc2c1=O`, for which the IC50 was 5.78 µM.
The figure for `O=C(N/N=C/c1ccc([N+](=O)[O-])s1)c1ccncc1` is 12.7 µM; for `O=C(Nc1ccc2nc(-c3ccccc3)[nH]c2c1)c1cccs1` it is 3.08 µM.
With `Cc1cccc(C(=O)Oc2cccc3c(O)cccc23)c1`, the IC50 was 8.12 µM.
In the case of `COc1ccc(NCc2ccc([N+](=O)[O-])s2)cc1`, the 50% inhibitory concentration (IC50) is 6.42 µM.
In the case of `Cc1ccc2[nH]cc(C(=O)CCl)c2c1`, the half-inhibitory concentration (IC50) is 26.1 µM.
In the case of `O=C(N/N=C/C(Br)=C/c1ccccc1)c1cccs1`, the IC50 was 8.5 µM.
With `Nc1cc([N+](=O)[O-])cc2oc(-c3ccccc3)cc12`, the half-inhibitory concentration (IC50) is 23.9 µM.
The same measure for `O=C(/C(=C/O)N=Nc1ccccc1)c1ccco1`: 11 µM; for `N#C/C(=C\c1ccc(Cl)cc1)C(=O)NC1CC1`: 9.67 µM; for `O=Cc1ccccc1OCc1ccc2c(c1)OCO2`: 5.65 µM.
Consider `Cc1ccc(-c2nnc(N3CCN(c4ccccn4)CC3)c3ccccc23)cc1`, for which the half-inhibitory concentration (IC50) was 13.1 µM.
As for `O=C(NCCCc1ccccc1)c1c(O)nc2sccn2c1=O`, the IC50 was 4.09 µM.
The same measure for `CC1(C)c2cc(Cl)ccc2-n2c1cc(O)c(-c1ccccc1)c2=O`: 11.5 µM; for `O=C(N/N=C/c1ccc(Br)s1)c1cccs1`: 22.9 µM; for `Cc1ccc(NC(=O)c2nc(S(=O)(=O)Cc3ccccc3C)ncc2Cl)cc1C`: 5.94 µM.
As for `Cc1ccccc1C(=O)Oc1cccc2c(O)cccc12`, the 50% inhibitory concentration (IC50) was 13.8 µM.
In the case of `Cc1ccc(-c2nn(-c3ccccc3)cc2NC(=O)CCl)cc1`, the IC50 was 26.7 µM.
The same measure for `Cc1oc2cc(O)cc(O)c2c(=O)c1-c1ccc2c(c1)OCCCO2`: 10.7 µM; for `CC(C)Cn1cnc2c(c(-c3ccccc3)c(-c3ccccc3)n2Cc2ccco2)c1=N`: 42.3 µM.
Turning to `CC1c2[nH]c3ccccc3c2CCN1C(=O)Nc1ccccc1` (stereo unspecified), the IC50 was 14 µM.
The figure for `Cc1cccc(N2C(=O)c3ccc(Br)cc3C2=O)n1` is 7.58 µM; for `O=C(N/N=C/C(Br)=C/c1ccccc1)c1ccccc1F` it is 15.5 µM; for `CCCCn1c(N)c(N(CCC(C)C)C(=O)c2ccc3c(c2)OCO3)c(=O)[nH]c1=O` it is > 100 µM (inactive).
The figure for `O=c1/c(=C/c2cccc3ccccc23)sc2ncnn12` is 16.7 µM; for `C=C1CCc2c([nH]c3ccc(OCC(C)C)cc23)C1=O` it is 24.3 µM; for `O=C(N/N=C/c1ccc(Br)s1)c1c[nH]c2ccccc12` it is 13.1 µM.
For the compound `Cc1ccc2c(c1)C(=O)N1[C@H]3c4ccccc4OC[C@@H]3[C@H](c3ccccc3)[C@]1(C)C(=O)N2`, the half-inhibitory concentration (IC50) is 3.54 µM.
The same measure for `OCCOCCNc1ncnc2c1c(-c1ccccc1)cn2-c1ccccc1`: 11.7 µM; for `O=C(/C=C\Nc1cccc(F)c1)c1cccs1`: 16.6 µM.
The same measure for `N#C/C(=C\c1ccc(O)cc1)c1nc2ccccc2o1`: 17.6 µM; for `N=c1c2c(-c3ccccc3)c(-c3ccccc3)n(Cc3ccco3)c2ncn1Cc1ccco1`: 14.6 µM; for `c1ccc(-c2cc3ccccc3cn2)cc1`: 7.8 µM.
In the case of `O=C(Nc1ccc(-c2ccc(N3CCCCC3)nn2)cc1)c1ccco1`, the IC50 was 5.82 µM.
`COc1ccc(N2CCC(CNC(=S)Nc3ccc(C)cc3C)C2)cc1` (stereo unspecified): the concentration for half-maximal inhibition (IC50) was 18.1 µM.
Regarding `CCCc1nc2c(c(=O)c3ccccc3n2C)c(=O)n1C1CCCCCC1`, the half-maximal inhibitory concentration (IC50) is 23.2 µM.
The figure for `CSc1nnc(C(C)(C)C)c(=O)n1/N=C/c1ccccc1` is 56.6 µM.
Consider `C[C@@]12C(=O)Nc3ccc(Br)cc3C(=O)N1[C@H]1c3ccccc3OC[C@@H]1[C@@H]2c1ccccc1`, for which the IC50 is 3.81 µM.
The figure for `COc1ccc(C(C[N+](=O)[O-])c2c(-c3ccccc3)cc3ccccn23)cc1` (stereo unspecified) is 9.28 µM.
As for `O=C1OC(c2ccccc2)=N/C1=C\C=C\c1ccco1`, the IC50 is > 100 µM (inactive).
Take `O=C(Nc1ccc2nc(-c3ccc(Br)o3)[nH]c2c1)c1cccs1`: the concentration for half-maximal inhibition (IC50) was 51 µM.
As to `O=C(c1cc(-c2ccc(O)cc2)on1)N1CCc2ccccc2C1`, the IC50 is 17.1 µM.
The figure for `Cc1ccc(-c2nc3ccccc3[nH]2)s1` is 16.4 µM.
The figure for `CCCN(C(=O)c1ccc([N+](=O)[O-])c(C)c1)c1c(N)n(Cc2ccccc2)c(=O)[nH]c1=O` is > 100 µM (inactive).
Regarding `Cc1ccc(S(=O)(=O)n2ccc(OC(=O)c3cccs3)n2)cc1`, the IC50 was 8.32 µM.
The figure for `CC(C(Sc1ccccc1N)c1ccccc1)[N+](=O)[O-]` (stereo unspecified) is 5.26 µM; for `Cc1nc2scc(C)n2c(=O)c1S(=O)(=O)Nc1ccc(OC(F)(F)F)cc1` it is 49.3 µM; for `O=C(Nc1ccc(OC(F)(F)F)cc1)N1CCN(c2ccnc3cc(Cl)ccc23)CC1` it is 10.2 µM.
The figure for `O=C(NCc1cccnc1)/C(=C\c1ccc(-c2ccc(Br)cc2)o1)S(=O)(=O)c1ccccc1` is 5.72 µM; for `O=C(N/N=C/c1coc2ccc(Cl)cc2c1=O)c1cc(O)cc(O)c1` it is 44.8 µM; for `O=C(Nc1ccc(Oc2cccc3ccccc23)cc1)c1ccco1` it is 8.83 µM.
The same measure for `O=C1/C(=C/c2ccncc2)SC(=S)N1C1CCCCC1`: 27.4 µM; for `O=C1c2ccccc2C(=O)N1c1nc(-c2cccs2)cs1`: 6.52 µM.
With `Cn1c(/C(C#N)=C/c2ccncc2)nc2ccccc21`, the IC50 is 34.3 µM.
The figure for `COC(=O)c1ccc(C(=O)OC)c(NC(=O)CSc2cccc[n+]2[O-])c1` is 10.6 µM.
Take `O=CN(/C=C1\Sc2ccccc2C1=O)Cc1ccccc1`: the half-inhibitory concentration (IC50) was 15.5 µM.
Turning to `Cc1ccc2nc(NC(=O)COC(=O)c3cccnc3)sc2c1`, the IC50 is 6.25 µM.
On to `CC(C)(C)c1ccc(Oc2ccc(N)cc2)cc1`, for which the half-maximal inhibitory concentration (IC50) was 13.7 µM.
With `Cc1ccc(Nc2nc(Cl)c(C=O)s2)cc1Cl`, the IC50 was 3.45 µM.
The same measure for `CC(C)n1ncc2c(C(=O)NCC(=O)Nc3ccccc3Br)cc(C3CC3)nc21`: 27.8 µM.
In the case of `O=C(COc1ccccc1)N/N=C/c1ccc([N+](=O)[O-])o1`, the 50% inhibitory concentration (IC50) is 10.8 µM.
As to `O=Cc1cn(CCOc2ccccc2F)c2ccccc12`, the half-maximal inhibitory concentration (IC50) was 22.3 µM.
The figure for `Brc1ccc(-n2cnc(-c3ccccc3)c2)cc1` is 17.4 µM; for `O=C(CC(=O)c1cc(Cl)ccc1O)c1ccccc1` it is 11.1 µM; for `O=C1/C(=C/c2cccs2)COc2ccccc21` it is 7.66 µM.
